In publication PMC6259751, “Investigating Spectrum of Biological Activity of 4- and 5-Chloro-2-hydroxy-N-[2-(arylamino)-1-alkyl-2-oxoethyl]benzamides” (Molecules, 2011):
In brackets after ≈: the same amount, converted by molar mass. Several values for one entry are separate records, joined by “and”; a condition that tells them apart may be missing. Equal values may be shown once. Read-outs that look alike come from different tables or passages of the source.

Assays:
[1] = Lipophilicity determination by RP-HPLC (capacity factor k / log k); assay type: physicochemical; details: C18 column, MeOH 70% / H2O 30%, isocratic
Experimental: Hydrophobicities (log P/Clog P) of compounds 8 and 9 were calculated using two commercially available programs (ChemOffice Ultra 10.0 and ACD/LogP) and measured by means of RP-HPLC determination of capacity factors k with subsequent calculation of log k. The procedure was performed under isocratic conditions with methanol as an organic modifier in the mobile phase using an end-capped non-polar C18 stationary RP column. The results are shown in Table 1 and illustrated in Figure 1.
A Waters Alliance 2695 XE HPLC separation module and a Waters Photodiode Array Detector 2996 (Waters Corp., Milford, MA, USA) were used. A Symmetry® C18 5 μm, 4.6 × 250 mm, Part No. WAT054275 (Waters Corp., Milford, MA, USA) chromatographic column was used. The HPLC separation process was monitored by Empower™ 2 Chromatography Data Software, Waters 2009 (Waters Corp., Milford, MA, USA). A mixture of MeOH p.a. (70%) and H2O-HPLC – Mili-Q Grade (30%) was used as a mobile phase. The total flow of the column was 1.0 mL/min, injection volume, 30 μL, column temperature, 30 °C and sample temperature, 10 °C. The detection wavelength of 210 nm was chosen. The KI methanolic solution was used for the dead time (tD) determination. Retention times (tR) were measured in minutes. The capacity factors k were calculated using the Empower™ 2 Chromatography Data Software according to formula k = (tR - tD)/tD, where tR is the retention time of the solute, whereas tD denotes the dead time obtained using an unretained analyte. Log k, calculated from the capacity factor k, is used as the lipophilicity index converted to log P scale.

[2] = test system: Mycobacterium tuberculosis MTB CNCTC My 331/88; test: In vitro antimycobacterial evaluation; assay type: cell-based; details: IC90 value
[3] = test system: Mycobacterium avium MA CNCTC My 330/88; test: In vitro antimycobacterial evaluation; assay type: cell-based; details: IC90 value
[4] = test system: Mycobacterium kansasii MK CNCTC My 235/80; test: In vitro antimycobacterial evaluation; assay type: cell-based; details: IC90 value
[5] = test system: Candida tropicalis 156; test: In vitro antifungal susceptibility testing (broth microdilution); assay type: cell-based; details: M27-A2 for yeasts, IC80 value
[6] = test system: Trichophyton mentagrophytes 445; test: as above; assay type: cell-based; details: M38-A for moulds, IC50 value, read-out: MIC TM
[7] = test system: photosynthetic electron transport (PET) in spinach chloroplasts; test: Inhibition of photosynthetic electron transport (PET) in spinach chloroplasts; assay type: biochemical, Spinacia oleracea L.; details: DCPIP photoreduction
Experimental: Chloroplasts were prepared from spinach (Spinacia oleracea L.) according to Masarovicova and Kralova. The inhibition of photosynthetic electron transport (PET) in spinach chloroplasts was determined spectrophotometrically (Genesys 6, Thermo Scientific, USA), using an artificial electron acceptor 2,6-dichlorophenol-indophenol (DCIPP) according to Kralova et al., and the rate of photosynthetic electron transport was monitored as a photoreduction of DCPIP. The measurements were carried out in phosphate buffer (0.02 mol/L, pH 7.2) containing sucrose (0.4 mol/L), MgCl2 (0.005 mol/L) and NaCl (0.015 mol/L). The chlorophyll content was 30 mg/L in these experiments and the samples were irradiated (~100 W/m^2) from 10 cm distance with a halogen lamp (250 W) using a 4 cm water filter to prevent warming of the samples. The studied compounds were dissolved in DMSO due to their limited water solubility. […] The inhibitory efficiency of the studied compounds was expressed by IC50 values, i.e. by molar concentration of the compounds causing 50% decrease in the oxygen evolution rate relative to the untreated control.

[8] = test system: Staphylococcus aureus CCM 4516/08; test: In vitro antibacterial susceptibility testing (broth microdilution); details: read-out: MIC SA
[9] = test system: methicilin resistant Staphylococcus aureus H 5996/08; test: as above; details: MRSA, read-out: MIC MRSA
[10] = test system: Staphylococcus epidermidis H 6966/08; test: as above; details: read-out: MIC SE
[11] = test system: Enterococcus sp. J 14365/08; test: as above; details: read-out: MIC EF

O=C(N[C@@H](Cc1ccccc1)C(=O)Nc1cccc(Cl)c1)c1cc(Cl)ccc1O [8f, N-{(1S)-1-benzyl-2-[(3-chlorophenyl)amino]-2-oxoethyl}-5-chloro-2-hydroxybenz-amide]
log k [1]: 0.70 and 0.7098 | MIC ([2]; 14h): 62.5 µM (≈ 26.8 µg/mL) | MIC ([2]; 21h): 125 µM (≈ 53.7 µg/mL) | MIC ([3]; 14h): 125 µM (≈ 53.7 µg/mL) | MIC ([3]; 21h): 250 µM (≈ 107 µg/mL) | MIC ([4]; 14h): 62.5 µM (≈ 26.8 µg/mL) | MIC ([4]; 21h): 125 µM (≈ 53.7 µg/mL) | MIC ([5]; 24h): 31.2 µM (≈ 13.4 µg/mL) | MIC ([5]; 48h): 125 µM (≈ 53.7 µg/mL) | MIC ([6]; 72h): 125 µM (≈ 53.7 µg/mL) | MIC ([6]; 120h): 125 µM (≈ 53.7 µg/mL) | IC50 [7]: 12.3 µM | MIC ([8]; CCM4516, 24 h): > 500 µM | MIC ([8]; CCM4516, 48 h): > 500 µM | MIC ([9]; 24 h): > 500 µM | MIC ([9]; 48 h): > 500 µM | MIC ([10]; H6966/08, 24 h): > 500 µM | MIC ([10]; H6966/08, 48 h): > 500 µM | MIC ([11]; SP.J14365/08, 24 h): > 500 µM | MIC ([11]; SP.J14365/08, 48 h): > 500 µM

O=C(N[C@@H](Cc1ccccc1)C(=O)Nc1ccc(Cl)cc1)c1cc(Cl)ccc1O [8k]
log k [1]: 0.7394 | MIC ([2]; 14h): 16 µM (≈ 6.87 µg/mL) | MIC ([2]; 21h): 16 µM (≈ 6.87 µg/mL) | MIC ([3]; 14h): 32 µM (≈ 13.7 µg/mL) | MIC ([3]; 21h): 32 µM (≈ 13.7 µg/mL) | MIC ([4]; 14h): 32 µM (≈ 13.7 µg/mL) | MIC ([4]; 21h): 62.5 µM (≈ 26.8 µg/mL) | MIC ([5]; 24h): 125 µM (≈ 53.7 µg/mL) | MIC ([5]; 48h): > 125 µM | MIC ([6]; 72h): 125 µM (≈ 53.7 µg/mL) | MIC ([6]; 120h): > 125 µM | IC50 [7]: 29.8 µM | MIC ([8]; CCM4516, 24 h): > 500 µM | MIC ([8]; CCM4516, 48 h): > 500 µM | MIC ([9]; 24 h): > 500 µM | MIC ([9]; 48 h): > 500 µM | MIC ([10]; H6966/08, 24 h): > 500 µM | MIC ([10]; H6966/08, 48 h): > 500 µM | MIC ([11]; SP.J14365/08, 24 h): > 500 µM | MIC ([11]; SP.J14365/08, 48 h): > 500 µM

CC(C)[C@H](NC(=O)c1cc(Cl)ccc1O)C(=O)Nc1ccc(Br)cc1 [8s]
log k [1]: 0.6709 | MIC ([2]; 14h): 62.5 µM (≈ 26.6 µg/mL) | MIC ([2]; 21h): 62.5 µM (≈ 26.6 µg/mL) | MIC ([3]; 14h): 62.5 µM (≈ 26.6 µg/mL) | MIC ([3]; 21h): 62.5 µM (≈ 26.6 µg/mL) | MIC ([4]; 14h): 62.5 µM (≈ 26.6 µg/mL) | MIC ([4]; 21h): 125 µM (≈ 53.2 µg/mL) | MIC ([5]; 24h): > 125 µM | MIC ([5]; 48h): > 125 µM | MIC ([6]; 72h): > 125 µM | MIC ([6]; 120h): > 125 µM | IC50 [7]: 26.2 µM | MIC ([8]; CCM4516, 24 h): > 125 µM | MIC ([8]; CCM4516, 48 h): > 125 µM | MIC ([9]; 24 h): > 125 µM | MIC ([9]; 48 h): > 125 µM | MIC ([10]; H6966/08, 24 h): > 125 µM | MIC ([10]; H6966/08, 48 h): > 125 µM | MIC ([11]; SP.J14365/08, 24 h): > 125 µM | MIC ([11]; SP.J14365/08, 48 h): > 125 µM

O=C(N[C@@H](Cc1ccccc1)C(=O)Nc1ccc(Br)cc1)c1cc(Cl)ccc1O [8u]
log k [1]: 0.7779 | MIC ([2]; 14h): 32 µM (≈ 15.2 µg/mL) | MIC ([2]; 21h): 32 µM (≈ 15.2 µg/mL) | MIC ([3]; 14h): 250 µM (≈ 118 µg/mL) | MIC ([3]; 21h): 250 µM (≈ 118 µg/mL) | MIC ([4]; 14h): 62.5 µM (≈ 29.6 µg/mL) | MIC ([4]; 21h): 125 µM (≈ 59.2 µg/mL) | MIC ([5]; 24h): 500 µM (≈ 237 µg/mL) | MIC ([5]; 48h): > 500 µM | MIC ([6]; 72h): 500 µM (≈ 237 µg/mL) | MIC ([6]; 120h): > 500 µM | IC50 [7]: 31.2 µM | MIC ([8]; CCM4516, 24 h): > 125 µM | MIC ([8]; CCM4516, 48 h): > 125 µM | MIC ([9]; 24 h): > 125 µM | MIC ([9]; 48 h): > 125 µM | MIC ([10]; H6966/08, 24 h): > 125 µM | MIC ([10]; H6966/08, 48 h): > 125 µM | MIC ([11]; SP.J14365/08, 24 h): > 125 µM | MIC ([11]; SP.J14365/08, 48 h): > 125 µM
